Publication PMC9329325, “Design, synthesis, in vitro biological assessment and molecular modeling insights for novel 3-(naphthalen-1-yl)-4,5-dihydropyrazoles as anticancer agents with potential EGFR inhibitory activity” (Scientific Reports, 2022)

What was measured:
MDA-MB-231 = test: MTT anti-proliferative assay, MDA-MB-231; format: cell-based, human; details: mean ± S.D. of 3 separate experiments
Experimental: (§1) The cytotoxic effects of herein prepared pyrazole- thiazol-4-one hybrids 9a-p against BC MDA-MB-231 and T-47D cell lines, obtained from American Type Culture Collection (ATCC), were determined using the MTT assay protocol. It is worth to mention that the selected cancer cell lines in this study are EGFR-expressing cell lines[25]–[28]. Doxorubicin and Erolitinib were utilized as positive control (Table 1).
(§2) All the biological assays conducted in this study were performed as reported earlier; MTT cytotoxicity[31],[32] cell cycle, Annexin V-FITC Apoptosis[34]–[36] and EGFR kinase[37] assays, (Supplementary Materials).
(§3) 1. Anti-proliferative activity
(§4) The two examined breast cancer cell lines (MDA-MB-231 and T-47D) as well as the normal breast MCF-10A cells have been obtained from American Type Culture Collection (ATCC). Cells lines were maintained as monolayers in Dulbecco’s Modified Eagle’s Medium (DMEM) supplemented with 10% FBS, 2 mM L-glutamine, 100 U/ml penicillin and 100µg/ml streptomycin sulfate. Cells were sub-cultured with trypsine /EDTA solution, counted with haemocytometer and plated onto 96-well plates (5000 cells/well) and left overnight to form a semi-confluent monolayer.
(§5) Cell monolayers were treated in quadrates with vehicle (DMSO, 0.1% v/v), test samples (thiazolyl-pyrazolines 9a-p) or Doxorubicin as positive control for an exposure time of 48 h. At the end of exposure, MTT solution in PBS (5 mg/ml) was then added to all well including no cell blank and left to incubate for 90 min. The formation of formazan crystals were visually confirmed using phase contract microscopy. DMSO (100 µl/well) was added to dissolve the formazan crystals with shaking for 10 min after which the absorbance was read at 590 nm against no cell blanks on a FLuo Star Optima microplate reader (BMG technologies, Germany). Cell proliferation was calculated comparing the OD values of the DMSO control wells and those of the samples represented as % proliferation to the control. Dose-response experiment was performed on samples producing > or =50% loss of cell proliferation using five serial 2-fold dilutions (50, 25, 12.5, 6.25 and 3.125 µM) of the sample. IC50 values (concentration of sample causing 50% loss of cell proliferation of the vehicle control) were calculated using non-linear regression curve fitting of the dose response plots on GraphPad Prism V.6.0 software. […]

T-47D = test: MTT anti-proliferative assay, T-47D; format: cell-based, human; details: 48 h exposure, mean ± S.D. of 3 separate experiments
Experimental: as §1, §2, §3, §4, §5

MCF-10A = test: MTT cytotoxicity toward normal breast MCF-10A cells; format: cell-based; details: Homo sapiens, 48 h exposure, mean ± S.D. of 3 separate experiments
Experimental: as §2, §3, §4, §5

EGFR = EGFR (Homo sapiens, UniProt P00533); test: EGFR kinase inhibitory activity (ADP-Glo Kinase Assay)
Chain of EGFR (P00533 25-1210): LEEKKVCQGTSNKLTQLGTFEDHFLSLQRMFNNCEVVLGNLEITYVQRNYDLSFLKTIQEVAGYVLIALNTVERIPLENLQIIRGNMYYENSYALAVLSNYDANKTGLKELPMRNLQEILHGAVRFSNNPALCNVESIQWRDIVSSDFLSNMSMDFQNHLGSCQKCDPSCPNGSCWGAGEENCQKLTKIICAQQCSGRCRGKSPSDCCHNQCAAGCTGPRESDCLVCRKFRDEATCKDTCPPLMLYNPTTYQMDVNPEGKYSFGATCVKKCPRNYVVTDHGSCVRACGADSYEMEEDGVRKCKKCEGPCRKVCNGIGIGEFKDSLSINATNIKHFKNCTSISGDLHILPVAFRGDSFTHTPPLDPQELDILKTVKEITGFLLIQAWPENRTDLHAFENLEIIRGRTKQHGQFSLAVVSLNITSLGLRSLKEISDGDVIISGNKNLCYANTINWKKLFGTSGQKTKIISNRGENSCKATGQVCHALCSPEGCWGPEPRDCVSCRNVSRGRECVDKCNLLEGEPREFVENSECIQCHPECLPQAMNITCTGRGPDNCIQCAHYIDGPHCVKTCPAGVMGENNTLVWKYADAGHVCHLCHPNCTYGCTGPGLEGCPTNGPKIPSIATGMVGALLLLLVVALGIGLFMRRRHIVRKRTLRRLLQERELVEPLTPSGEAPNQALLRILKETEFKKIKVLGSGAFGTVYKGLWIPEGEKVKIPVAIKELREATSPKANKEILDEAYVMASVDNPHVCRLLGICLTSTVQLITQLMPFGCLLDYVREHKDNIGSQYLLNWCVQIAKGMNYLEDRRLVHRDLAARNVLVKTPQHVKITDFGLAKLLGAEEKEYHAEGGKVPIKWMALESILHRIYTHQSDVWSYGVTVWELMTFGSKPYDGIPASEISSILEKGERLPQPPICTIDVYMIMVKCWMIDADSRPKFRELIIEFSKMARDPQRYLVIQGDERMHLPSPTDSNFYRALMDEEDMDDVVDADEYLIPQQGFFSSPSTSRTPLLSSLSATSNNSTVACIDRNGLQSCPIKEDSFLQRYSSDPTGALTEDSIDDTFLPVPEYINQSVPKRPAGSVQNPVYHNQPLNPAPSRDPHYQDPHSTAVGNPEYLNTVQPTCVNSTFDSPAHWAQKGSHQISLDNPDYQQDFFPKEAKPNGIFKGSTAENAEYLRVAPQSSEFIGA
Experimental: Cells were then analyzed using the flow cytometer BD FACS Canto II and the results were interpreted with FlowJo7.6.4 software (Tree Star, Ashland, OR, 4. EGFR Kinase Inhibitory Activity
ADP-Glo™ Kinase Assay (Promega, Catalogue No. V3831) which is a luminescent kinase assay that measures ADP formed from a kinase reaction. ADP is converted into ATP which is converted into light by Ultra‐Glo™ Luciferase. The luminescent signal positively correlates with ADP amount and kinase activity.
Protocol: first dilute enzyme, substrate, ATP and inhibitors in Tyrosine Kinase Buffer (40 mM Tris,7.5; 20 mM MgCl2; 0.1 mg/ml BSA (bovine serum albumin); 2 mM MnCl2; 50μM DTT),
and 2 μl of substrate/ATP mix. Incubate at room temperature for 60 minutes, add 5 μl of ADP‐ Glo™ Reagent, incubate at room temperature for 40 minutes, add 10 μl of Kinase Detection reagent, incubate at room temperature for 30 minutes and finally record luminescence (Integration time 0.5‐1second).

MDA-MB-231 cells [1] = test: Annexin V-FITC/PI apoptosis assay; format: cell-based, human; details: at IC50 concentration (9g 0.62 µM, 9k 1.14 µM), 48 h; for Late apoptosis (upper right %): control 0.21%; for Early apoptosis (lower right %): control 0.73%; for Total apoptosis (L.R % + U.R %): control 0.94%
Experimental: as §2
3. Annexin V-FITC Apoptosis Assay
Phosphatidylserine externalization was assayed using Annexin V-FITC/PI apoptosis detection kit (BD Biosciences, USA) according to the manufacturer’s instructions. Breast cancer MDA-MB-231 cells were cultured to a monolayer then treated with compounds 9g and 9k at their IC50 concentration. Briefly, cells were then harvested via trypsinization, and rinsed twice in PBS followed by binding buffer. Moreover, cells were re-suspended in 100 μL of binding buffer with the addition of 1 μL of FITC-Annexin V followed by an incubation period of 30 min at 4 °C. Cells were then rinsed in binding buffer and resuspended in 150 μL of binding buffer with the addition

MDA-MB-231 cells [2] = test: Cell cycle analysis by PI flow cytometry; format: cell-based, human; details: at IC50 concentration (9g 0.62 µM, 9k 1.14 µM), 24 h; for %Sub-G1: control 2.13%; for %S: control 32.11%
Experimental: All the biological assays conducted in this study were performed as reported earlier; MTT cytotoxicity[31],[32] cell cycle, Annexin V-FITC Apoptosis[34]–[36] and EGFR kinase[37] assays, (Supplementary Materials). […]
The two examined breast cancer cell lines (MDA-MB-231 and T-47D) as well as the normal breast MCF-10A cells have been obtained from American Type Culture Collection (ATCC). Cells lines were maintained as monolayers in Dulbecco’s Modified Eagle’s Medium (DMEM) supplemented with 10% FBS, 2 mM L-glutamine, 100 U/ml penicillin and 100µg/ml streptomycin […]
sulfate. […]
Breast cancer MDA-MB-231 cells were treated with compounds 9g and 9k for 24 h (at their IC50 concentration), and then cells were washed twice with ice-cold phosphate buffered saline (PBS). Subsequently, the treated cells were collected by centrifugation, fixed in ice-cold 70% (v/v) ethanol, washed with PBS, re-suspended with 100 μg/mL RNase, stained with 40 μg/mL PI, and analyzed by flow cytometry using FACS Calibur (Becton Dickinson, BD, Franklin Lakes, NJ, USA). The cell cycle distributions were calculated using CellQuest software 5.1 (Becton

[3] = Homo sapiens, MDA-MB-231, 48 h, 48 h exposure

| IC50 (MDA-MB-231; [3]) [µM] | IC50 (T-47D; Homo sapiens, T47D, 48 h) [µM] | SMILES | IC50 (MCF-10A) [µM] | also measured |
| --- | --- | --- | --- | --- |
| 19.8 ± 1.08 | > 100 | O=C1N=C(N2N=C(c3cccc4ccccc34)CC2c2ccc(F)cc2)S/C1=C/c1ccccc1 (stereo not shown) [Compound 9a] |  | IC50 (T-47D): > 100 µM; IC50 T-47D (T-47D): inactive |
| 12.2 ± 0.67 | 18.6 ± 0.87 | O=C1N=C(N2N=C(c3cccc4ccccc34)CC2c2ccc(F)cc2)S/C1=C/c1ccc(O)cc1 (stereo not shown) [Compound 9b] |  |  |
|  | 8.45 ± 0.27 | CN(C)c1ccc(/C=C2/SC(N3N=C(c4cccc5ccccc45)CC3c3ccc(F)cc3)=NC2=O)cc1 (stereo not shown) [Compound 9c] | 47 ± 3.52 |  |
| 45 ± 2.45 | > 100 | COc1ccccc1/C=C1/SC(N2N=C(c3cccc4ccccc34)CC2c2ccc(F)cc2)=NC1=O (stereo not shown) [Compound 9d] |  | IC50 (T-47D): > 100 µM; IC50 T-47D (T-47D): inactive |
| 14.1 ± 0.77 | 12.4 ± 0.33 | COc1ccc(/C=C2/SC(N3N=C(c4cccc5ccccc45)CC3c3ccc(F)cc3)=NC2=O)cc1 (stereo not shown) [Compound 9e] |  |  |
|  | 27.1 ± 1.08 | COc1cccc(/C=C2/SC(N3N=C(c4cccc5ccccc45)CC3c3ccc(F)cc3)=NC2=O)c1O (stereo not shown) [Compound 9f] | 42.6 ± 2.81 |  |
|  | 3.14 ± 0.11 | COc1ccc(C=C2SC(N3N=C(c4cccc5ccccc45)CC3c3ccc(F)cc3)=NC2=O)cc1O (stereo not shown) [Compound 9g] | 31.7 ± 3.1 | IC50 (EGFR): 0.267 ± 0.012 µM; Late apoptosis (upper right %) (MDA-MB-231 cells [1]): 23.93%; Early apoptosis (lower right %) (MDA-MB-231 cells [1]): 8.39%; Total apoptosis (L.R % + U.R %) (MDA-MB-231 cells [1]): 32.32%; %Sub-G1 (MDA-MB-231 cells [2]): 31.05%; %G2/M (MDA-MB-231 cells [2]; control 12.31%): 2%; %S (MDA-MB-231 cells [2]): 35.43% |
| < 10 | 11.4 ± 0.67 | COc1cc(/C=C2/SC(N3N=C(c4cccc5ccccc45)CC3c3ccc(F)cc3)=NC2=O)ccc1O (stereo not shown) [Compound 9h] | 79.5 ± 5.27 | IC50 (MDA-MB-231; 48 h exposure): 5.82 ± 0.317 µM |
| 24.7 ± 1.35 | > 100 | O=C1N=C(N2N=C(c3cccc4ccccc34)CC2c2ccc(Cl)cc2)S/C1=C/c1ccccc1 (stereo not shown) [Compound 9i] |  | IC50 (T-47D): > 100 µM; IC50 T-47D (T-47D): inactive |
| < 10 | 35.1 ± 2.04 | O=C1N=C(N2N=C(c3cccc4ccccc34)CC2c2ccc(Cl)cc2)S/C1=C/c1ccc(O)cc1 (stereo not shown) [Compound 9j] | 65.4 ± 5.04 | IC50 (MDA-MB-231; 48 h exposure): 6.24 ± 0.34 µM |
|  | 4.92 ± 0.28 | CN(C)c1ccc(C=C2SC(N3N=C(c4cccc5ccccc45)CC3c3ccc(Cl)cc3)=NC2=O)cc1 (stereo not shown) [Compound 9k] | 58.5 ± 4.36 | IC50 (EGFR): 0.395 ± 0.017 µM; Late apoptosis (upper right %) (MDA-MB-231 cells [1]): 20%; Early apoptosis (lower right %) (MDA-MB-231 cells [1]): 14.22%; Total apoptosis (L.R % + U.R %) (MDA-MB-231 cells [1]): 34.22%; %Sub-G1 (MDA-MB-231 cells [2]): 27.86%; %S (MDA-MB-231 cells [2]): 28.45%; %G0-G1 (MDA-MB-231 cells [2]; control 53.45%): 40.61% |
| 58 ± 3.16 | > 100 | COc1ccccc1/C=C1/SC(N2N=C(c3cccc4ccccc34)CC2c2ccc(Cl)cc2)=NC1=O (stereo not shown) [Compound 9l] |  | IC50 (T-47D): > 100 µM; IC50 T-47D (T-47D): inactive |
| 18.9 ± 1.03 | 27.6 ± 1.24 | COc1ccc(/C=C2/SC(N3N=C(c4cccc5ccccc45)CC3c3ccc(Cl)cc3)=NC2=O)cc1 (stereo not shown) [Compound 9m] |  |  |
| 35.1 ± 1.92 | 67.3 ± 2.51 | COc1cccc(/C=C2/SC(N3N=C(c4cccc5ccccc45)CC3c3ccc(Cl)cc3)=NC2=O)c1O (stereo not shown) [Compound 9n] |  |  |
| 10.8 ± 0.59 | 7.36 ± 0.3 | COc1ccc(/C=C2/SC(N3N=C(c4cccc5ccccc45)CC3c3ccc(Cl)cc3)=NC2=O)cc1O (stereo not shown) [Compound 9o] |  |  |
| 10.8 ± 0.59 | 19.5 ± 0.92 | COc1cc(/C=C2/SC(N3N=C(c4cccc5ccccc45)CC3c3ccc(Cl)cc3)=NC2=O)ccc1O (stereo not shown) [Compound 9p] | 83.6 ± 6.74 | IC50 (MDA-MB-231; 48 h exposure): 6.55 ± 0.357 µM |
| 3.67 ± 0.2 | 2.73 ± 0.09 | COc1cccc2c1C(=O)c1c(O)c3c(c(O)c1C2=O)C[C@@](O)(C(=O)CO)C[C@@H]3O[C@H]1C[C@H](N)[C@H](O)[C@H](C)O1 [Doxorubicin, reference compound] |  |  |
|  |  | C#Cc1cccc(Nc2ncnc3cc(OCCOC)c(OCCOC)cc23)c1 [Erlotinib, reference compound] |  | IC50 (MDA-MB-231; Homo sapiens, MDA-MB-231, 48 h exposure): 2.88 ± 0.17 µM; IC50 (T-47D; Homo sapiens, T47D): 3.61 ± 0.24 µM |
